Results reported in PMC6320956, “O-Aminoalkyl-O-Trimethyl-2,3-Dehydrosilybins: Synthesis and In Vitro Effects Towards Prostate Cancer Cells” (Molecules, 2018).
Read-outs that look alike come from different tables or passages of the source.

Legend:
DU145 cells [1] = details: WST-1, three days of exposure; cited from earlier work
PC-3 cells [2] = details: WST-1, three days of exposure; cited from earlier work
LNCaP cells [3] = details: WST-1, three days of exposure; cited from earlier work
DU145 cells [4] = experiment: WST-1 cell proliferation assay, DU145; format: cell-based, human; details: for IC50 (Silibinin)/IC50(Derivative) DU145: fold potency relative to silibinin; for IC50: Homo sapiens, DU-145, 72 h, WST-1, three days of exposure, mean ± SD, n = 3
Description: (§1) The in vitro antiproliferative activities of six 7-O-substituted and 26 3-O-substituted silybin derivatives were evaluated using the WST-1 cell proliferation assay, according to the procedure as described in the Experimental Section in both androgen-sensitive (LNCaP) and androgen-insensitive (PC-3 and DU145) human prostate cancer cell lines. Silibinin and docetaxel were used as a positive control for comparison in the parallel experiments and the IC50 values calculated from the dose-response curves are summarized in Table 1. […] A three-carbon linker in 11 and 29, as well as a five-carbon linker in 31, 37 and 40, are beneficial to the potency.
(§2) All cell lines were initially purchased from American Type Culture Collection (ATCC^TM) (Manassas, VA, USA). The PC-3 and LNCaP prostate cancer cell lines were routinely cultured in RPIM-1640 medium supplemented with 10% FBS and 1% penicillin/streptomycin. The DU145 prostate cancer cells were routinely cultured in Eagle’s Minimum Essential Medium (EMEM) supplemented with 10% FBS and 1% penicillin/streptomycin. Cultures were maintained in a high humidity environment supplemented with 5% carbon dioxide at a temperature of 37 °C.
(§3) PC-3, DU145, or LNCaP cells were plated in 96-well plates at a density of 3,200 per well in 200 µL of culture medium. The cells were then separately treated with silibinin, or synthesized silibinin derivatives, at five different doses for three days, while equal treatment volumes of DMSO (0.25%) were used as the vehicle control. The cells were cultured in a CO2 incubator at 37 °C for three days. A total of 10 µL of the premixed WST-1 cell proliferation reagent (Clontech) was added to each well. After mixing gently for one min on an orbital shaker, the cells were incubated for an additional 3 h at 37 °C. To ensure a homogeneous distribution of color, it is important to mix gently on an orbital shaker for one min. The absorbance of each well was measured using a microplate reader (Synergy HT, BioTek, Winooski, VT, USA) at a wavelength of 430 nm. […] For calculating the IC50 values, a linear proliferative inhibition was made based on at least five dosages for each compound.

LNCaP cells [5] = experiment: WST-1 cell proliferation assay, LNCaP; format: cell-based, human; details: for IC50 (Silibinin)/IC50(Derivative) LNCaP: fold potency relative to silibinin; for IC50: Homo sapiens, LNCaP, 72 h, WST-1, three days of exposure, mean ± SD, n = 3
Description: as §1, §2, §3

PC-3 cells [6] = experiment: WST-1 cell proliferation assay, PC-3; format: cell-based, human; details: for IC50 (Silibinin)/IC50(Derivative) PC-3: fold potency relative to silibinin; for IC50: Homo sapiens, PC-3, 72 h, WST-1, three days of exposure, mean ± SD, n = 3
Description: as §1, §2, §3

[7] = test system: prostate cancer cell models; set-up: method as in PMID 17201169, PMID 26446382, PMID 27557939, PMID 21507570; details: cited from earlier work
[8] = test system: MCF 10A non-neoplastic human mammary epithelial cell line; experiment: WST-1 cell proliferation assay, MCF 10A non-neoplastic cells; format: cell-based; details: Homo sapiens, MCF-10A, 72 h; WST-1, three days of exposure, mean ± SD, n = 3
Description: (§4) Silibinin and five potent derivatives (11, 29, 31, 37, and 40) were selected for further evaluation against the MCF 10A non-neoplastic human mammary epithelial cell line and PWR-1E non-neoplastic human prostate epithelial cells.
as §3

[9] = test system: PWR-1E non-neoplastic human prostate epithelial cells; experiment: WST-1 cell proliferation assay, PWR-1E non-neoplastic cells; format: cell-based; details: Homo sapiens, PWR-1E, 72 h; WST-1, three days of exposure, mean ± SD, n = 3
Description: as §4, §3

IC50 (Silibinin)/IC50(Derivative) DU145 (DU145 cells [4]) | IC50 (Silibinin)/IC50(Derivative) LNCaP (LNCaP cells [5]) | IC50 (Silibinin)/IC50(Derivative) PC-3 (PC-3 cells [6]) | melting point [°C] | IC50 (DU145 cells [4]) [µM] | IC50 (LNCaP cells [5]) [µM] | IC50 (PC-3 cells [6]) [µM] | SMILES | IC50 (DU145 cells [1]) [µM] | IC50 (PC-3 cells [2]) [µM] | IC50 (LNCaP cells [3]) [µM] | IC50 [7] [µM] | IC50 [8] [µM] | IC50 [9] [µM]
8 | 21 | 42 |  |  |  |  | CCCOc1c(-c2ccc3c(c2)OC(c2ccc(O)c(OC)c2)C(CO)O3)oc2cc(O)cc(O)c2c1=O (centres unmarked) [Compound 4, 3-O-propyl-2,3-dehydrosilybin, reference compound] | 11 ± 0.68 | 1.71 ± 0.45 | 2.07 ± 0.18 |  |  | 
8 | 8 | 3 | 115 to 116 | 11.5 ± 2.38 | 5.71 ± 2.13 | 26.1 ± 3.58 | COc1ccc(C2Oc3cc(-c4oc5cc(OCCCBr)cc(OC)c5c(=O)c4OC)ccc3OC2CO)cc1OC (centres unmarked) [Compound 8, 7-O-(3′-bromo)propyl-3,5,20-O-trimethyl-2,3-dehydrosilybin] |  |  |  |  |  | 
2 | 4 | 2 | 125 to 127 | 39.6 ± 9.49 | 12.1 ± 1.81 | 42.6 ± 6.61 | CNCCCOc1cc(OC)c2c(=O)c(OC)c(-c3ccc4c(c3)OC(c3ccc(OC)c(OC)c3)C(CO)O4)oc2c1 (centres unmarked) [Compound 9, 7-O-(N-Methylaminopropyl)-3,5,20-O-trimethyl-2,3-dehydrosilybin] |  |  |  |  |  | 
 |  |  |  | 93.3 ± 13.7 | 43.7 ± 10.9 | 72.7 ± 3.15 | COc1cc(C2Oc3cc([C@H]4Oc5cc(O)cc(O)c5C(=O)[C@@H]4O)ccc3OC2CO)ccc1O (some centres unmarked) [Silibinin, reference compound] |  |  |  | 40 to 106 | 23.8 ± 0.96 | 20.4 ± 4.09
